Data: patent US8318980B2, “UV absorbing compounds” (Fujifilm Manufacturing Europe B.V., priority 2007, dated 2012)
“Also recorded” adds a separate entry of the source.

Tests used:
human skin = assay: Skin penetration test in diffusion cell; assay type: in vitro ADME; conditions: human skin, diffusion cell; for penetration through the skin (UV-analysis of collected receptor fluids), in words: 20 hrs
Procedure: The skin-penetration was evaluated based on the same method described on page 21 of WO2006/009451. FIG. 2 is a drawing of the skin penetration test equipment, wherein (1) indicates the position of the test sample (donor compound), (2) an ⅛″ OD× 1/32″ wall tubing, (3) the receptor input, (4) the receptor compartment and (5) the compound and receptor output that is subjected to analysis.
A compound 3 donor solution was prepared by dissolving 30 mg of compound 3 in 4 ml EtOH and 7 ml phosphate buffer (PBS) at pH 7.4. Compound 4, 6, 7, 8 and 9 donor solutions were prepared by dispersing 80 mg of these compounds in olive oil.
For each compound 4 pieces of human skin (Ø ca 3 cm, mostly epidermis) were applied on a dialysis membrane and mounted into the diffusion cell shown in the FIG. 2. The figure is a schematic drawing of the diffusion cell, wherein is indicated 1: donor compound, 2: receptor compartment, 3: receptor input, 4: compound and receptor output for analysis, 5: ⅛″ OD× 1/32″ wall tubing. The cells were mounted on a temperature controlling and stirring device. The temperature was kept at 37°. The receptor fluid was a PBS buffer. The receptor compartment was stirred magnetically. 400 μl of the donor solution was applied. The receptor fluid flowing at a speed of 1 ml/hr was collected into glass tubes (1 tube/2 hrs). After 20 hrs the penetration experiment was terminated.
Furthermore the skin parts were extracted with DMSO to dissolve any UV-absorber in the epidermis. The extracts were analysed by UV.

[1] = Solubility test in C12-C15 alkyl benzoate oil (Finsolv TN); assay type: physicochemical; parameters: key to Solubility in Finsolv TN, dissolved amount (m/m %) 1% / Solubility in Finsolv TN, dissolved amount (m/m %) 5% / Solubility in Finsolv TN, dissolved amount (m/m %) 20% / Solubility in Finsolv TN, dissolved amount (m/m %) 50% / Solubility in Finsolv TN, dissolved amount (m/m %) 80% / Solubility in Finsolv TN, dissolved amount (m/m %) 90%: +=well-soluble; −=not soluble
Procedure: The aminobutadiene compounds according to the present invention have an optimised solubility for cosmetic oils. […] In Table 3, the solubility of compounds 4, 12 and 13 is shown at various concentrations (+=well-soluble; -=not soluble). The compounds were dissolved at 80° C. while stirring for 1 hour and cooled down to room temperature. After 24 hours the solutions were inspected for any precipitates or crystals.

[2] = Spectral analysis: UV extinction value E at 375 nm; assay type: physicochemical; conditions: 1% solution in DMSO at 375 nm
Source text: The aminobutadiene compounds according to the present invention have a typical extinction value E of about 1100 to about 1500 AU/cm of a 1% solution in dimethylsulfoxide (DMSO, Sigma Aldrich ACS spectrophotometric grade) at 375 nm, which is typically the wavelength of the absorption maximum of such compounds. The exact value of E depends on the relative contribution of the core and the R-groups to the molecular weight, while the exact wavelength of the absorption maximum depends on the type of substituents. Spectra were obtained on a HP 8452A diode array spectrophotometer against a DMSO blanc.

[3] = Heat stability test (UV-absorption left after storage at 50° C.); assay type: physicochemical; conditions: for Heat stability: UV-absorption left after 5 days: 5 days at 50° C. in the dark; for Heat stability: UV-absorption left after 5 days / Heat stability: UV-absorption left after 50 days / Heat stability: UV-absorption left after 100 days: 1.5% in C12-C15 alkyl benzoate oil (compound 12: 5% in water), 375 nm versus sample stored at room temperature; for Heat stability: UV-absorption left after 50 days: 50 days at 50° C. in the dark; for Heat stability: UV-absorption left after 100 days: 100 days at 50° C. in the dark; for heat stability, in words: in C12-C15 alkylbenzoate oils
Procedure: Hereto, 1.5% solutions were prepared of compounds 4-11 and 13 in C12-C15 alkyl benzoate oil. […] The solutions were stored in closed vessels at 50° C. in the dark. After 5, 50 and 100 days, the UV-absorption of a diluted sample was measured at 375 nm comparative to a corresponding sample stored at room temperature. The UV-absorption left after each time span is shown in Table 4 indicated by + and − signs. ++ means >95% left, +− implies between 50-95% left, − indicates <50% left.

Structure (SMILES): CCCCCCCCOC(=O)C(=CC=CN(CCCCCCN(C=CC=C(C(=O)OCCCCCCCC)S(=O)(=O)c1ccccc1)Cc1ccccc1)CCCCCCN(C=CC=C(C(=O)OCCCCCCCC)S(=O)(=O)c1ccccc1)Cc1ccccc1)S(=O)(=O)c1ccccc1 [Compound 4]
- penetration into or through the skin (UV analysis of DMSO skin extracts), in words (human skin): do not penetrate into or through the skin
- penetration through the skin (UV-analysis of collected receptor fluids), in words (human skin): no penetration
- Solubility in Finsolv TN, dissolved amount (m/m %) 1% ([1]; 1% m/m, dissolved at 80° C. for 1 hour, cooled to room temperature, inspected after 24 hours): +
- Solubility in Finsolv TN, dissolved amount (m/m %) 5% ([1]; 5% m/m, dissolved at 80° C. for 1 hour, cooled to room temperature, inspected after 24 hours): +
- Solubility in Finsolv TN, dissolved amount (m/m %) 20% ([1]; 20% m/m, dissolved at 80° C. for 1 hour, cooled to room temperature, inspected after 24 hours): +
- Solubility in Finsolv TN, dissolved amount (m/m %) 50% ([1]; 50% m/m, dissolved at 80° C. for 1 hour, cooled to room temperature, inspected after 24 hours): +
- Solubility in Finsolv TN, dissolved amount (m/m %) 80% ([1]; 80% m/m, dissolved at 80° C. for 1 hour, cooled to room temperature, inspected after 24 hours): +
- Solubility in Finsolv TN, dissolved amount (m/m %) 90% ([1]; 90% m/m, dissolved at 80° C. for 1 hour, cooled to room temperature, inspected after 24 hours): +
- solubility in C12-C15 alkyl benzoate oil (Finsolv TN), in words ([1]; all concentrations): very well soluble at all concentrations
- extinction E [2]: 1400 au/cm
- Heat stability: UV-absorption left after 5 days [3]: ++ (++ means >95% left)
- Heat stability: UV-absorption left after 50 days [3]: ++ (++ means >95% left)
- Heat stability: UV-absorption left after 100 days [3]: ++ (++ means >95% left)
- heat stability, in words [3]: very heat stable

Structure (SMILES): CCCCCCCCOC(=O)C(=CC=CN(CCN(C=CC=C(C(=O)OCCCCCCCC)S(=O)(=O)c1ccccc1)Cc1ccccc1)CCN(C=CC=C(C(=O)OCCCCCCCC)S(=O)(=O)c1ccccc1)Cc1ccccc1)S(=O)(=O)c1ccccc1 [Compound 9]
- penetration into or through the skin (UV analysis of DMSO skin extracts), in words (human skin): do not penetrate into or through the skin
- penetration through the skin (UV-analysis of collected receptor fluids), in words (human skin): no penetration
- Heat stability: UV-absorption left after 5 days [3]: ++ (++ means >95% left)
- Heat stability: UV-absorption left after 50 days [3]: ++ (++ means >95% left)
- Heat stability: UV-absorption left after 100 days [3]: ++ (++ means >95% left)
- heat stability, in words [3]: very heat stable; also recorded: good heat stability
